The subject of one data set is Botrytis cinerea. As to the kind of experiment: Test A: tomato seedlings sprayed, next day inoculated with Botrytis cinerea (tomato Botrytis), visual disease rating. The data set is classed as in vivo. As to conditions: Botrytis cinerea, 200 ppm test suspension, sprayed day before inoculation. Summed up:
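Tomato seedlings were sprayed to run-off with 200 ppm suspension (≈500 g/ha; 40 ppm where starred) and inoculated next day with B. cinerea spores. Plants were held 48 h at 20 °C in saturated humidity, then 3 days at 24 °C, and disease control was rated visually, 0–100, relative to controls.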

In another data set the test system is Alternaria solani. In words: Test B: tomato seedlings sprayed, next day inoculated with Alternaria solani (tomato early blight), visual disease rating. The data set is classed as in vivo. As to conditions: Alternaria solani, 200 ppm test suspension, sprayed day before inoculation. Summed up:
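Tomato seedlings sprayed to run-off with 200 ppm (some 40 ppm) compound suspensions in acetone/water with surfactant; inoculated next day with A. solani spores. Kept 48 h saturated humidity at 27 °C, then 5 days at 20 °C; visual disease control rated 0–100 relative to untreated controls.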

In another data set the test system is Septoria nodorum. In words: Test C: wheat seedlings sprayed, next day inoculated with Septoria nodorum (wheat glume blotch), visual disease rating. The class given is in vivo. To be noted: Parastagonospora nodorum, 200 ppm test suspension, sprayed day before inoculation. Summed up: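 Preventive foliar test: wheat seedlings sprayed to run-off at 200 ppm (≈500 g/ha) or 40 ppm, in acetone/water with 250 ppm Trem 014, then inoculated with spores the next day. Held 48 h saturated at 24° C, then 6 days at 20° C; disease control rated visually, 0–100 relative to untreated controls.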

The subject of a further data set is Septoria tritici. In words: Test D: wheat seedlings sprayed, next day inoculated with Septoria tritici (wheat leaf blotch), visual disease rating. The class given is in vivo. To be noted: Zymoseptoria tritici, 200 ppm test suspension, sprayed day before inoculation. Summed up: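 Wheat seedlings sprayed to run-off with 200 ppm (≈500 g/ha) or 40 ppm suspension, inoculated with Septoria tritici spores next day. Held at 24° C in saturated atmosphere for 48 h, then 20° C for 19 days before visual rating, expressed as 0–100% disease control relative to controls.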

In data set [1] the test system is Puccinia recondita f. sp. tritici. In words: Test E1: wheat seedlings inoculated with Puccinia recondita f. sp. tritici (wheat leaf rust), sprayed afterwards, visual disease rating. The class given is in vivo. To be noted: Puccinia recondita, 200 ppm test suspension, sprayed after inoculation. The source says:
General protocol for preparing test suspensions for Tests A-F: the test compounds were first dissolved in acetone in an amount equal to 3% of the final volume and then suspended at the desired concentration (in ppm) in acetone and purified water (50/50 mix) containing 250 ppm of the surfactant Trem® 014 (polyhydric alcohol esters). The resulting test suspensions were then used in Tests A-F. Spraying a 200 ppm test suspension to the point of run-off on the test plants was the equivalent of a rate of 500 g/ha. An asterisk “*” next to the rating value indicates a 40 ppm test suspension.
Wheat seedlings were inoculated with a spore suspension of Puccinia recondita f. sp. tritici (the causal agent of wheat leaf rust) and incubated in a saturated atmosphere at 20° C. for 24 h, and then moved to a growth chamber at 20° C. for 2 days. At the end of this time the test suspension was sprayed to the point of run-off on the wheat seedlings, and then the seedlings were moved to a growth chamber at 20° C. for 6 days, after which time visual disease ratings were made.
Results for Tests A-F are given in Table A. In the Table, a rating of 100 indicates 100% disease control and a rating of 0 indicates no disease control (relative to the controls). A dash (-) indicates no test results. All results are for 200 ppm except where followed by “*”, which indicates 40 ppm.

The test system is the same in data set [2]. As to the kind of experiment: Test E2: wheat seedlings sprayed, next day inoculated with Puccinia recondita f. sp. tritici (wheat leaf rust), visual disease rating. The class given is in vivo. To be noted: Puccinia recondita, 200 ppm test suspension, sprayed day before inoculation. Summed up:
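Compounds in acetone/water (50/50) with 250 ppm Trem® 014 sprayed to run-off at 200 ppm (equivalent to 500 g/ha) or 40 ppm where marked "*". Seedlings inoculated next day with spores, held 24 h saturated at 20° C, then 7 days at 20° C; visual rating 0-100% disease control relative to controls.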

The test system of another data set is Erysiphe graminis. As to the kind of experiment: Test F: wheat seedlings sprayed, next day inoculated with Erysiphe graminis (wheat powdery mildew), visual disease rating. To be noted: Blumeria graminis, 200 ppm test suspension, sprayed day before inoculation. The data set is classed as in vivo. Summed up:
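Seedlings sprayed to run-off with compound suspension in acetone/water containing 250 ppm Trem® 014 (200 ppm ≈ 500 g/ha; asterisked ratings 40 ppm). Inoculated next day with Erysiphe graminis spores and kept 8 days at 20° C. Visual rating 0-100% disease control relative to controls.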

The structures appear in SMILES notation.

The record followed here is patent publication US20120135995A1, “FUNGICIDAL DIPHENYL-SUBSTITUTED PYRIDAZINES” (E.I. Dupont de Nemours and Company, priority 2009, published 2012).

With `COc1cc(OC)cc(-c2c(C)nnc(F)c2-c2c(F)cccc2F)c1` [Compound 33, 4-(2,6-difluorophenyl)-3-fluoro-5-(3,5-dimethoxyphenyl)-6-methylpyridazine], the melting point – broadly, the temperature of the solid-liquid transition – lay within 150 to 151 °C. Moreover, the pest or weed control (as a rule, how far the test organism was held down) at 200 ppm with Botrytis cinerea is 99%. This compound also yielded a pest or weed control at 200 ppm in the data set on Alternaria solani of 100%. Also, the pest or weed control at 200 ppm in the data set with Septoria nodorum worked out at 99%. This compound also registered a pest or weed control at 200 ppm in the data set on Septoria tritici of 100%. In data set [1], the pest or weed control at 200 ppm came out at 60%. Moreover, in data set [2], the pest or weed control at 200 ppm turned out to be 100%. In the data set with Erysiphe graminis, this compound registered a pest or weed control at 200 ppm of 99%.
